# Reference: patent US20080242661A1, “Novel compounds useful for the treatment of degenerative & inflammatory diseases” (priority 2006, published 2008)
# Target: purified PDE1A enzyme (Homo sapiens, UniProt P54750)
# Assay: In vitro PDE1A assay, dose response (Biomol Cyclic Nucleotide Phosphodiesterase Assay Kit, colorimetric)
# Assay type: biochemical
# Conditions: 100 μM cAMP, 45 min at 37° C., 8 points from 20 μM, duplicate
# Excerpt: For the dose response and further screening, we used the Cyclic Nucleotide Phosphodiesterase Assay Kit from Biomol, a colorimetric, non-radioactive assay. The basis for the assay is the cleavage of cAMP by PDE1A. The 5′AMP is further cleaved into the nucleoside and phosphate by the enzyme 5′-nucleotidase (catnr KI-307). The phosphate released due to enzymatic cleavage is quantified using BIOMOL GREEN™ reagent (catnr AK-111) in a modified Malachite Green assay 1,2. A PDE1A inhibitor will result in a decrease of the signal.
# For the enzymatic reaction a mix of 25 μL with purified PDE1A enzyme, 100 μM cAMP, 5′Nucleotidase and the compound is made in a clear 384-plate. The reaction buffer is Tris 20 mM pH 7.4, 4 μg/ml calmodulin, 3 mM MgCl2, 1.5 mM CaCl2, 0.2 mg/mL BSA and 0.001% Brij-35. After an incubation of 45 minutes at 37° C., the reaction is stopped by the addition of 50 μL BIOMOL GREEN™ reagent. After 30 minutes incubation at room temperature, the readout is performed on the Envision (absorption at 615 nm).
# All compounds are tested in duplicate starting from 20 μM followed by a ⅓ serial dilution, 8 points (20 μM-6.67 μM-2.22 μM-740 nM-247 nM-82 nM-27 nM-9 nM) in a final concentration of 1% DMSO. As the positive dose response control compound Vardenafil is used. For the calculation of z′ and PIN values 10 μM Vardenafil is used as positive control (100% inhibition) and 1% DMSO as negative control (0% inhibition).
# The following compounds have been or can be prepared according to the synthetic methods described above. For the purpose of Table 2 below, activity of each compound, which can be determined using the PDE1A assay method described in above, is expressed as follows: […]
row,IC50 [µM],Structure (SMILES)
1,< 0.1,"CCCC(C)CN(C)c1nc2c(C(C)(C)C)nn(C)c2c(=O)[nH]1 (stereo not shown) [Example 115, 3-tert-butyl-1-methyl-5-(methyl(2-methylpentyl)amino)-1H-pyrazolo[4,3-d]pyrimidin-7(6H)-one]"
2,> 0.5,"Cn1nc(C2CCCC2)c2nc(N3CCCCC3)[nH]c(=O)c21 [Example 85, 3-cyclopentyl-1-methyl-5-(piperidin-1-yl)-1H-pyrazolo[4,3-d]pyrimidin-7(6H)-one]"
3,> 0.5,"CCCc1nn(C)c2c(=O)[nH]c(NCc3cccc(CN4CCOCC4)c3)nc12 [Example 53, 1-methyl-5-(3-(morpholinomethyl)benzylamino)-3-propyl-1H-pyrazolo[4,3-d]pyrimidin-7(6H)-one]"
4,> 0.5,"CCn1nc(C(C)(C)C)c2nc(N(Cc3cccc(N4CCOCC4)c3)CC(C)C)[nH]c(=O)c21 [Example 124, 3-tert-butyl-1-ethyl-5-(isobutyl(3-morpholinobenzyl)amino)-1H-pyrazolo[4,3-d]pyrimidin-7(6H)-one]"
5,> 0.5,"CCCc1nn(C)c2c(=O)[nH]c(NCc3cc(C(F)(F)F)cc(C(F)(F)F)c3)nc12 [Example 31, 5-(3,5-bis(trifluoromethyl)benzylamino)-1-methyl-3-propyl-1H-pyrazolo[4,3-d]pyrimidin-7(6H)-one]"
6,0.101 to 0.5,"CCCc1nn(C)c2c(=O)[nH]c(N(C)Cc3ccccc3)nc12 [Example 33, 5-(benzyl(methyl)amino)-1-methyl-3-propyl-1H-pyrazolo[4,3-d]pyrimidin-7(6H)-one]"
7,> 0.5,"CCCc1nn(C)c2c(=O)[nH]c(N3CCCN(Cc4c(F)cccc4Cl)CC3)nc12 [Example 1, 5-(4-(2-chloro-6-fluorobenzyl)-1,4-diazepan-1-yl)-1-methyl-3-propyl-1H-pyrazolo[4,3-d]pyrimidin-7(6H)-one]"
8,> 0.5,"CCCc1nn(C)c2c(=O)[nH]c(N(C)CCc3ccc(OC)c(OC)c3)nc12 [Example 20, 5-((3,4-dimethoxyphenethyl)(methyl)amino)-1-methyl-3-propyl-1H-pyrazolo[4,3-d]pyrimidin-7(6H)-one]"
9,0.101 to 0.5,"CCCc1nn(C)c2c(=O)[nH]c(N(C)CC(C)CCC)nc12 (stereo not shown) [Example 123, 1-methyl-5-(methyl(2-methylpentyl)amino)-3-propyl-1H-pyrazolo[4,3-d]pyrimidin-7(6H)-one]"
10,< 0.1,"CN(CCC(C)(C)C)c1nc2c(C(C)(C)C)nn(C)c2c(=O)[nH]1 [Example 111, 3-tert-butyl-5-((3,3-dimethylbutyl)(methyl)amino)-1-methyl-1H-pyrazolo[4,3-d]pyrimidin-7(6H)-one]"
11,0.101 to 0.5,"CCCc1nn(C)c2c(=O)[nH]c(NCc3c(-c4ccccc4)noc3C)nc12 [Example 51, 1-methyl-5-((5-methyl-3-phenylisoxazol-4-yl)methylamino)-3-propyl-1H-pyrazolo[4,3-d]pyrimidin-7(6H)-one]"
12,0.101 to 0.5,"CCCc1nn(C)c2c(=O)[nH]c(N(C)Cc3cccc(Cl)c3)nc12 [Example 15, 5-((3-chlorobenzyl)(methyl)amino)-1-methyl-3-propyl-1H-pyrazolo[4,3-d]pyrimidin-7(6H)-one]"
13,< 0.1,CCCc1nn(C)c2c(=O)[nH]c(N(Cc3cccc(-n4cncn4)c3)CC(C)C)nc12 [Example 96]
14,> 0.5,"CCCc1nn(C)c2c(=O)[nH]c(N(C)Cc3cccc(OCCN4CCOCC4)c3)nc12 [Example 48, 1-methyl-5-(methyl(3-(2-morpholinoethoxy)benzyl)amino)-3-propyl-1H-pyrazolo[4,3-d]pyrimidin-7(6H)-one]"
15,> 0.5,"CCCc1nn(C)c2c(=O)[nH]c(N(C)Cc3ccnc(N4CCCC4)c3)nc12 [Example 41, 1-methyl-5-(methyl((2-(pyrrolidin-1-yl)pyridin-4-yl)methyl)amino)-3-propyl-1H-pyrazolo[4,3-d]pyrimidin-7(6H)-one]"
16,> 0.5,"CCCc1nn(C)c2c(=O)[nH]c(NCCc3ccc(F)cc3)nc12 [Example 87, 5-(4-fluorophenethylamino)-1-methyl-3-propyl-1H-pyrazolo[4,3-d]pyrimidin-7(6H)-one]"
